Experimental data published in patent publication EP1209147A1, “CARBOXYLIC ACID DERIVATIVES AND ADHESION MOLECULE INHIBITORS CONTAINING THE SAME AS THE ACTIVE INGREDIENT” (TORAY INDUSTRIES, INC., priority 1999, dated 2001).

System: Auricular Edema Model
Assay: Auricular edema model (IgE anti-DNP passive sensitization, DNFB induction)
Format: in vivo, BLAB/c mouse
Protocol: To each BLAB/c mouse (female, 7 weeks old, JAPAN CHARLES RIVER), mouse IgE anti-DNP antibody (5 mg/kg, SEIKAGAKU CORPORATION) was intravenously administered to passively sensitize the mouse. Twenty four hours later, 20 µl of 0.38% 2,4- dinitrofluorobenzene (DNFB, Aldrich) dissolved in acetone:olive oil (4:1) was applied to the auricle of the sensitized mouse to induce inflammation. The thickness of the auricle was measured until 24 hours after the induction with Digimatic Indicator (Mitutoyo) and the ear swelling rate was calculated according to the following equation: Ear Swelling Rate (%) = (A - B)/B x 100 [formula] • A: Thickness of right auricle at 24 hours after induction • B: Thickness of right auricle before induction
Twenty four hours after the induction, the auricle was cut off and fixed with formalin. After the fixation, continuous sections of the auricle were prepared and stained by Luna staining. The number of eosinophils in each section was counted and the total of them was defined as the number of eosinophils accumulated in the auricle.
Compound No. 140 used as the test compound was dissolved in physiological saline and the solution was intravenously administered totally 3 times, i.e., at the time of sensitization, at 8 hours and 24 hours after sensitization, at a dose of 400 mg/kg per each time. Further, to examine the effect of the compound when applied to the auricle, the compound was dissolved in ethanol, and the solution was applied to the auricle totally twice, i.e., at 8 hours after sensitization and at 1 hour before the induction, at a dose of 0.3 mg/ear. To the background group and the control group, physiological saline was intravenously administered and ethanol was applied, respectively. The experiment was carried out using 4 to 6 mice in each group. The results are shown in terms of mean ± standard error.
Twenty four hours after the induction, the auricle was cut off and fixed with formalin. After the fixation, continuous sections of the auricle were prepared and stained by Luna staining. The number of eosinophils in each section was counted. Compound No. 143 used as the test compound was dissolved in physiological saline and the solution was topically or systemically administered totally 3 times, i.e., at the time of sensitization, at 8 hours and 24 hours after sensitization. The experiment was carried out using 4 to 6 mice in each group. The results are shown in terms of mean ± standard error.

In the case of `CC(C)(C)CC(=O)N[C@@H](CSSC[C@H](NC(=O)CC(C)(C)C)C(=O)O)C(=O)O` [Example 140, 3-((2(R)-carboxy-2(R)-(3,3-dimethylbutanoylamino)ethyl)disulfanyl)-2(R)-(3,3-dimethylbutanoylamino)propionic acid], the “swelling of ear induced by application of the antigen” value (Compound No. 140: 400 mg/kg intravenously 3 times or 0.3 mg/ear applied to auricle) is reported as “inhibited”, the “accumulation of eosinophils to auricle induced by application of the antigen” value (Compound No. 140: 400 mg/kg intravenously 3 times or 0.3 mg/ear applied to auricle, Fig. 1, 400 mg/kg) is reported as “inhibits” and the “Ear Swelling Rate (%)” value (applied to auricle, 0.3 mg/ear, twice, 24 hours after induction) is reported as 26.12%. For the same compound, the “Inhibition Rate (%)” value (swelling of ear, applied to auricle, 0.3 mg/ear, twice) was 40.3%.
